This note sets out measurements from patent US10918642B2, “N-(substituted-phenyl)-sulfonamide derivatives as kinase inhibitors” (Nerviano Medical Sciences S.R.L., priority 2016, dated 2021).

This experiment deals with PERK recombinant enzyme (cytoplasmic domain corresponding to residues 540-1115) (Homo sapiens (Human), UniProt Q9NZJ5). Kind of experiment: PERK enzyme assay, Method 1: ADP-Glo Kinase Assay (quantification of ADP formed). The experiment is classed as biochemical. Conditions: 52 microM ATP, 8 nM PERK, 300 microM eIF2alpha peptide substrate, 60 minutes at room temperature. Here is the method: The biochemical activity of compounds was determined by incubation with PERK recombinant enzyme (cytoplasmic domain corresponding to residues 540-1115) and elF2alpha peptide substrate (Aminoacid sequence: LLSELSRRRIRSINK—SEQ ID Nr: 1; purchased from American Peptide Company, product #341923). This was followed by:
Method 1: Quantification of the ADP Tormed from the Kinase Reaction by ADP-Glo™ Kinase Assay (Promega Cat. 9102). Utra Pure ATP was Included into ADP-Glo™ Kinase Assay kit.
Compounds were 3-fold serially diluted in order to obtain from 3.333 to 0.000169 microM final concentration, then incubated for 60 minutes at room temperature in the presence of ATP, substrate and enzyme in a final volume of 15 microL of kinase buffer in 384-well plates (Perkin Elmer cat. #6007290).
The final concentration of the different reagents is 52 microM ATP, 8 nM PERK, 300 microM substrate, 50 mM Hepes pH 7.5, 3 mM MgCl2, 1 mM DTT, 3 microM Na3VO4, 0.2 mg/ml BSA, 1% DMSO.
After 60 minutes, an equal volume (15 microL) of ADP-Glo™ Reagent was added to each well to terminate the kinase reaction and deplete the remaining ATP. After 40 minutes, 30 microL of Kinase Detection Reagent is added, which simultaneously converts ADP to ATP and allows the newly synthesized ATP to be measured using a coupled luciferase/luciferin reaction. After further 40 minutes luminescence was read by ViewLux Instrument (Perkin Elmer). The data are analyzed by GraphPad Prism software which provides sigmoidal fittings of the curves for IC50 determination using a 4 parameter logistic equation: y=bottom+(top−bottom)/(1+10^((log IC50−x)*slope))
where x is the logarithm of the inhibitor concentration, y is the response; y starts at bottom and goes to top with a sigmoid shape.
A general note: ADP-Glo turns the ADP formed in a reaction into a luminescent signal.

PERK recombinant enzyme (cytoplasmic domain corresponding to residues 540-1115), sequence (Q9NZJ5 540-1115): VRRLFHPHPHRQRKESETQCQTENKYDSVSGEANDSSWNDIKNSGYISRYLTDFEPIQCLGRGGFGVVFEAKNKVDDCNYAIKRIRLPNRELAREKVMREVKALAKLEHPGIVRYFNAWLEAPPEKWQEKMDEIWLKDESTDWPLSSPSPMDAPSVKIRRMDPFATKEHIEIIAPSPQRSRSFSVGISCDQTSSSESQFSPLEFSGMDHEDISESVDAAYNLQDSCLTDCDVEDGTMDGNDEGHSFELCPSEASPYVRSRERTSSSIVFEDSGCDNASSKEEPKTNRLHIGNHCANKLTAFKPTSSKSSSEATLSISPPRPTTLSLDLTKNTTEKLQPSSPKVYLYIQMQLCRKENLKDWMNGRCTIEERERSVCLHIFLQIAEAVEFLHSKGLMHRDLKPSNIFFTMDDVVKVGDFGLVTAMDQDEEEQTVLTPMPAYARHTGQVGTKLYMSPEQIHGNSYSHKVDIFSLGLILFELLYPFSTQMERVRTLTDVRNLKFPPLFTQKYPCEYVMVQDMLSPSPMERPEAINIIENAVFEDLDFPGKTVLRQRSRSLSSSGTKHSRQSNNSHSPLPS

On to `COc1cc(F)c(S(=O)(=O)Nc2cccc(-c3cn(C(C)C)c4ncnc(N)c34)c2F)cc1Cl` [cmpd 74, N-[3-(4-Amino-7-isopropyl-7H-pyrrolo[2,3-d]pyrimidin-5-yl)-2-fluoro-phenyl]-5-chloro-2-fluoro-4-methoxy-benzenesulfonamide], for which the half-inhibitory concentration (IC50) (in general, the concentration needed to halve the response being measured) was 50.1 to 158 nM.
As to `Cc1cc(S(=O)(=O)Nc2cccc(-c3cn(C)c4ncnc(N)c34)c2F)ccc1Br` [cmpd 52, N-[3-(4-Amino-7-methyl-7H-pyrrolo[2,3-d]pyrimidin-5-yl)-2-fluoro-phenyl]-4-bromo-3-methyl-benzenesulfonamide], the pIC50 entry was “AA (7.8 ≤ pIC50)”.
`COc1ccc(S(=O)(=O)Nc2cccc(-c3cn(C)c4ncnc(N)c34)c2F)cc1` [cmpd 14, N-[3-(4-Amino-7-methyl-7H-pyrrolo[2,3-d]pyrimidin-5-yl)-2-fluoro-phenyl]-4-methoxy-benzenesulfonamide]: the half-inhibitory concentration (IC50) is 50.1 to 158 nM.
Regarding `Cn1cc(-c2cccc(NS(=O)(=O)c3cc(F)ccc3F)c2F)c2c(N)ncnc21` [cmpd 21, N-[3-(4-Amino-7-methyl-7H-pyrrolo[2,3-d]pyrimidin-5-yl)-2-fluoro-phenyl]-2,5-difluoro-benzenesulfonamide], the pIC50 entry is “C (pIC50 < 6.8)”.
As for `COc1ccc(S(=O)(=O)Nc2cccc(-c3cn(C4CCOCC4)c4ncnc(N)c34)c2F)cc1Cl` [cmpd 37, N-{3-[4-Amino-7-(tetrahydro-pyran-4-yl)-7H-pyrrolo[2,3-d]pyrimidin-5-yl]-2-fluoro-phenyl}-3-chloro-4-methoxy-benzenesulfonamide], the 50% inhibitory concentration (IC50) was 15.8 to 50.1 nM.
On to `Cn1cc(-c2cccc(NS(=O)(=O)c3ccc(Cl)s3)c2F)c2c(N)ncnc21` [cmpd 47, 5-Chloro-thiophene-2-sulfonic acid [3-(4-amino-7-methyl-7H-pyrrolo[2,3-d]pyrimidin-5-yl)-2-fluoro-phenyl]-amide], for which the half-maximal inhibitory concentration (IC50) is 15.8 to 50.1 nM.
As for `Cn1cc(-c2cccc(NS(=O)(=O)c3cccc(Cl)c3)c2F)c2c(N)ncnc21` [cmpd 13, N-[3-(4-Amino-7-methyl-7H-pyrrolo[2,3-d]pyrimidin-5-yl)-2-fluoro-phenyl]-3-chloro-benzenesulfonamide], the pIC50 result is given as “AA (7.8 ≤ pIC50)”.
`Cn1cc(-c2cccc(NS(=O)(=O)c3cc(C(F)(F)F)cc(C(F)(F)F)c3)c2F)c2c(N)ncnc21` [cmpd 49, N-[3-(4-Amino-7-methyl-7H-pyrrolo[2,3-d]pyrimidin-5-yl)-2-fluoro-phenyl]-3,5-bis-trifluoromethyl-benzenesulfonamide]: the IC50 was 50.1 to 158 nM.
Same read-out and setting: the same measure for `COc1ccc(S(=O)(=O)Nc2cccc(-c3nn(C)c4ncnc(N)c34)c2F)cc1C` [cmpd 34, N-[3-(4-Amino-1-methyl-1H-pyrazolo[3,4-d]pyrimidin-3-yl)-2-fluoro-phenyl]-4-methoxy-3-methyl-benzenesulfonamide]: 15.8 to 50.1 nM.
With `Cn1cc(-c2cccc(NS(=O)(=O)c3ccc4c(c3)CCO4)c2F)c2c(N)ncnc21` [cmpd 27, 2,3-Dihydro-benzofuran-5-sulfonic acid [3-(4-amino-7-methyl-7H-pyrrolo[2,3-d]pyrimidin-5-yl)-2-fluoro-phenyl]-amide], the pIC50 entry is “AA (7.8 ≤ pIC50)”.
For the compound `COc1ccc(S(=O)(=O)Nc2cccc(-c3cn(C)c4ncnc(N)c34)c2F)cn1` [cmpd 81, 6-Methoxy-pyridine-3-sulfonic acid [3-(4-amino-7-methyl-7H-pyrrolo[2,3-d]pyrimidin-5-yl)-2-fluoro-phenyl]-amide], the IC50 was 50.1 to 158 nM.
Consider `Cn1cc(-c2cccc(NS(=O)(=O)c3ccc(OC(F)(F)F)c(Cl)c3)c2F)c2c(N)ncnc21` [cmpd 50, N-[3-(4-Amino-7-methyl-7H-pyrrolo[2,3-d]pyrimidin-5-yl)-2-fluoro-phenyl]-3-chloro-4-trifluoromethoxy-benzenesulfonamide], for which the pIC50 entry was “C (pIC50 < 6.8)”.
In the case of `CN1CCOc2cc(S(=O)(=O)Nc3cccc(-c4cn(C)c5ncnc(N)c45)c3F)ccc21` [cmpd 18, 4-Methyl-3,4-dihydro-2H-benzo[1,4]oxazine-7-sulfonic acid [3-(4-amino-7-methyl-7H-pyrrolo[2,3-d]pyrimidin-5-yl)-2-fluoro-phenyl]-amide], the IC50 is 50.1 to 158 nM.
Regarding `COc1ccc(S(=O)(=O)Nc2cccc(-c3cn(C4CCNCC4)c4ncnc(N)c34)c2F)cc1C` [cmpd 64, N-[3-(4-Amino-7-piperidin-4-yl-7H-pyrrolo[2,3-d]pyrimidin-5-yl)-2-fluoro-phenyl]-4-methoxy-3-methyl-benzenesulfonamide], the IC50 was 15.8 to 50.1 nM.
Consider `Cc1cc(S(=O)(=O)Nc2cccc(-c3cn(C)c4ncnc(N)c34)c2F)ccc1OC(C)C` [cmpd 30, N-[3-(4-Amino-7-methyl-7H-pyrrolo[2,3-d]pyrimidin-5-yl)-2-fluoro-phenyl]-4-isopropoxy-3-methyl-benzenesulfonamide], for which the pIC50 entry was “C (pIC50 < 6.8)”.
Turning to `Cn1cc(-c2cccc(NS(=O)(=O)c3ccc(Br)s3)c2F)c2c(N)ncnc21` [cmpd 48, 5-Bromo-thiophene-2-sulfonic acid [3-(4-amino-7-methyl-7H-pyrrolo[2,3-d]pyrimidin-5-yl)-2-fluoro-phenyl]-amide], the half-maximal inhibitory concentration (IC50) is 15.8 to 50.1 nM.
In the case of `COc1ccc(S(=O)(=O)Nc2cccc(-c3cn(C4CCN(C)CC4)c4ncnc(N)c34)c2F)cc1Cl` [cmpd 4, N-{3-[4-Amino-7-(1-methyl-piperidin-4-yl)-7H-pyrrolo[2,3-d]pyrimidin-5-yl]-2-fluoro-phenyl}-3-chloro-4-methoxy-benzenesulfonamide], the pIC50 entry is “AA (7.8 ≤ pIC50)”.
Regarding `Cn1cc(-c2cccc(NS(=O)(=O)c3cnc(Cl)c(Br)c3)c2F)c2c(N)ncnc21` [cmpd 33, 5-Bromo-6-chloro-pyridine-3-sulfonic acid [3-(4-amino-7-methyl-7H-pyrrolo[2,3-d]pyrimidin-5-yl)-2-fluoro-phenyl]-amide], the half-maximal inhibitory concentration (IC50) was 15.8 to 50.1 nM.
On to `Cn1cc(-c2cccc(NS(=O)(=O)c3ccc(Cl)c(Cl)c3)c2F)c2c(N)ncnc21` [cmpd 25, N-[3-(4-Amino-7-methyl-7H-pyrrolo[2,3-d]pyrimidin-5-yl)-2-fluoro-phenyl]-3,4-dichloro-benzenesulfonamide], for which the IC50 is 15.8 to 50.1 nM.
Consider `COc1ccc(S(=O)(=O)Nc2cccc(-c3cn(C4CCN(C(C)C)CC4)c4ncnc(N)c34)c2F)cc1Cl` [cmpd 6, N-{3-[4-Amino-7-(1-isopropyl-piperidin-4-yl)-7H-pyrrolo[2,3-d]pyrimidin-5-yl]-2-fluoro-phenyl}-3-chloro-4-methoxy-benzenesulfonamide], for which the pIC50 entry is listed as “AA (7.8 ≤ pIC50)”.
For `COc1ccc(S(=O)(=O)Nc2cccc(-c3cn(C4CCN(C(C)C)CC4)c4ncnc(N)c34)c2F)cc1C` [cmpd 40, N-{3-[4-Amino-7-(1-isopropyl-piperidin-4-yl)-7H-pyrrolo[2,3-d]pyrimidin-5-yl]-2-fluoro-phenyl}-4-methoxy-3-methyl-benzenesulfonamide], the 50% inhibitory concentration (IC50) was 15.8 to 50.1 nM.
Take `COc1cc(F)c(S(=O)(=O)Nc2cccc(-c3csc4ccnc(N)c34)c2F)cc1Cl` [cmpd 59, N-[3-(4-Amino-thieno[3,2-c]pyridin-3-yl)-2-fluoro-phenyl]-5-chloro-2-fluoro-4-methoxy-benzenesulfonamide]: the half-maximal inhibitory concentration (IC50) is 50.1 to 158 nM.
As for `Cn1cc(-c2cccc(NS(=O)(=O)c3ccc(Br)c(C(F)(F)F)c3)c2F)c2c(N)ncnc21` [cmpd 51, N-[3-(4-Amino-7-methyl-7H-pyrrolo[2,3-d]pyrimidin-5-yl)-2-fluoro-phenyl]-4-bromo-3-trifluoromethyl-benzenesulfonamide], the IC50 was 15.8 to 50.1 nM.
